{
  "source": "patent US8710241B2",
  "about": "“Crystalline form of zofenopril calcium” (Generics [UK]Limited, priority 2007, dated 2014)",
  "key": {"[1]": {"test": "Conditioning (equilibration) of dried samples, characterised by XRPD", "format": "physicochemical", "settings": "conditioned at 30° C. for 30 minutes under nitrogen after drying", "experimental": "Approximately 100 mg of zofenopril calcium were dried at 50° C. for 120 minutes under a nitrogen flow atmosphere (flow rate: 500 ml/min). The sample was finally conditioned at 30° C. for 30 minutes under the nitrogen gas atmosphere.\nThe drying processes as detailed in the above examples yield the novel anhydrous form D of zofenopril calcium according to the invention. […] Thus, the compounds prepared by examples 1-5 were determined to be the same crystalline form and were distinct from the prior art forms A, B, and C. Further, the samples were then ‘conditioned’, i.e. they were allowed to equilibrate."}, "[2]": {"test": "DSC and XRPD experiments on polymorphic transition", "format": "physicochemical", "settings": "up to temperatures of ca. 140° C.", "experimental": "The X-ray powder diffraction data was obtained by methods known in the art using a Bruker D8 Advance Powder Diffractometer with scintillation detector under the following parameters: • Reflectance mode • Cu Kα radiation (1.5406 Å) • Scanning range: 2-30 °2θ • Step size: 0.02 °2θ • Time per step: 6s"}, "[3]": {"test": "Water vapour sorption isotherm (Surface Measurement Systems DVS-HT)", "format": "physicochemical", "settings": "25° C.; for Maximum water uptake: high/elevated relative humidity levels (greater than 90% rh), calcium salt", "experimental": "Equilibrium water uptake levels of less than 0.5 wt % were observed up to a relative humidity level of 70% rh, which may be considered the uppermost limit of ambient humidity conditions.\nDetermination of the water vapour sorption isotherms of zofenopril calcium crystalline form D according to the invention and of the prior art form B were performed by Surface Measurement Systems DVS-HT. The resultant isotherms, as shown in FIGS. 4 and 5 respectively, were obtained under the following parameters: • Temperature=25° C. • Humidity profile: Desorption 1: 50-0% relative humidity (rh) in steps of 10% • Adsorption: 0-90% rh in steps of 10%, 95% rh • Desorption 2: 95% rh, 90-50% rh in steps of 10% • Equilibration time per rh stage: 240 min (0% rh), 180 min (all other rh levels)"}, "[4]": {"settings": "TGA, 25-105° C.", "description": "The compounds obtained by the processes according to the invention as described above and in the following examples were also subjected to thermogravimetric analysis (TGA). […] The TGA analysis data was obtained using a Mettler-Toledo TGA851e apparatus under the following parameters: • Temperature profile: 25-300° C.@5° C./min • Nitrogen purge gas: 50 ml/min • Aluminium pan: 40 μl, pierced prior to scan"}},
  "note": "Where a name gives a salt, the structure may show the parent alone.",
  "data": [
    {"smiles": "C[C@H](CSC(=O)c1ccccc1)C(=O)N1C[C@@H](Sc2ccccc2)C[C@H]1C(=O)O", "note": "[form D, (4S)-1-[(2S)-3-(benzoylthio)-2-methylpropionyl]-4-(phenylthio)-L-proline calcium salt]", "values": [
      {"measurement": "Conversion upon cooling to hydrated form C or another crystalline form", "setting": "[1]", "value": "no conversion"},
      {"measurement": "Polymorphic transition", "setting": "[2]", "value": "no polymorphic transition"},
      {"measurement": "Maximum water uptake", "setting": "[3]", "value": "ca. 1 wt %"},
      {"measurement": "Equilibrium water uptake", "setting": "[3]; up to a relative humidity level of 70% rh", "value": "less than 0.5 wt %"},
      {"measurement": "Re-conversion to hydrate form C upon exposure to water vapour", "setting": "[3]; water vapour sorption isotherm, 0-95% rh", "value": "does not easily re-convert to hydrate form C"},
      {"measurement": "Weight loss, equivalent to loss on drying (LOD)", "setting": "[4]", "value": "less than 0.5 wt %"}
    ]},
    {"smiles": "C[C@H](CSC(=O)c1ccccc1)C(=O)N1C[C@@H](Sc2ccccc2)C[C@H]1C(=O)O", "note": "[form B, (4S)-1-[(2S)-3-(benzoylthio)-2-methylpropionyl]-4-(phenylthio)-L-proline calcium salt, reference compound]", "values": [
      {"measurement": "Maximum water uptake", "setting": "[3]", "value": "approximately 2.5 wt %"}
    ]}
  ]
}
